In ChEMBL document CHEMBL1151415, “Plant anticancer agents. XXIV. Alkaloid constituents of Simaba multiflora” (1983):
In brackets after ≈: the same amount, converted by molar mass. Activity calls are given as the source filed them. The rule behind the calls is not given here.

Tested on: KB
Assay: Cytotoxicity against human KB cells
Format: functional
Settings: for EC50: read-out: ED50 (the source's name)

COn1c(=O)cc2c3ccccc3n3c(=O)ccc1c23
Activity: inactive

COn1c(=O)cc2c3cc(O)ccc3n3c(=O)ccc1c23
Activity: inactive

COc1ccc2c(c1)c1ccnc3ccc(=O)n2c31
EC50: 2.1 µg/mL (≈ 8.39 µM)

O=c1ccc2nccc3c4cc(O)ccc4n1c23
EC50: 2.2 µg/mL (≈ 9.31 µM)

O=c1cc2c3ccccc3n3c(=O)ccc([nH]1)c23
Activity: inactive
